Values joined by “and” are separate entries in the source; they are usually repeats but may differ in a detail not shown here. Identical values can stand only once. ± gives the expanded uncertainty stated by the source.
Details: for vapor or sublimation pressure: Liquid, Closed cell (Static) method; for mass density: Fluid (supercritical or subcritical phases), isochoric method

FC(F)(F)/C=C\C(F)(F)F [(Z)-1,1,1,4,4,4-hexafluorobut-2-ene]
Details | vapor or sublimation pressure
323.47 K | 182.2 ± 8 kPa
323.49 K | 177.9 ± 8 kPa
323.5 K | 180.6 ± 8 kPa [middle of 4 runs]
323.51 K | 181.2 ± 8 kPa [middle of 7 runs]
323.52 K | 180.2 ± 8 kPa [middle of 5 runs]
323.53 K | 182.1 ± 8 kPa and 186.3 ± 8 kPa
333.44 K | 247.7 ± 8 kPa
333.45 K | 248.1 ± 8 kPa
333.46 K | 243.8 ± 8 kPa
333.47 K | 247.2 ± 8 kPa and 243.5 ± 8 kPa
333.48 K | 246.1 ± 8 kPa and 248.3 ± 8 kPa
333.49 K | 247.6 ± 8 kPa [middle of 9 runs]
333.5 K | 254.8 ± 8 kPa
343.45 K | 331.8 ± 8 kPa
343.46 K | 331.6 ± 8 kPa
343.48 K | 331.2 ± 8 kPa [middle of 6 runs]
343.49 K | 330.6 ± 8 kPa [middle of 7 runs]
343.5 K | 343.2 ± 8 kPa and 336.4 ± 8 kPa and 331.7 ± 8 kPa
353.46 K | 435.3 ± 8.1 kPa
353.47 K | 435.3 ± 8.1 kPa
353.48 K | 435.2 ± 8.1 kPa and 429.9 ± 8 kPa and 430.2 ± 8 kPa
353.49 K | 435.2 ± 8.1 kPa [middle of 5 runs]
353.5 K | 434.6 ± 8.1 kPa [middle of 4 runs]
363.46 K | 562 ± 8.1 kPa and 561.7 ± 8.1 kPa
363.47 K | 555.8 ± 8.1 kPa and 556.4 ± 8.1 kPa
363.48 K | 562.1 ± 8.1 kPa [middle of 4 runs]
363.49 K | 562.2 ± 8.1 kPa [middle of 5 runs]
363.5 K | 567.8 ± 8.1 kPa and 559.4 ± 8.1 kPa
373.45 K | 714 ± 8.1 kPa
373.47 K | 714.4 ± 8.1 kPa [middle of 4 runs]
373.48 K | 731.7 ± 8.1 kPa and 715.2 ± 8.1 kPa
373.49 K | 713.5 ± 8.1 kPa [middle of 5 runs]
373.5 K | 716.9 ± 8.1 kPa [middle of 4 runs]
383.45 K | 895.1 ± 8.2 kPa
383.46 K | 888.7 ± 8.2 kPa
383.47 K | 896.6 ± 8.2 kPa and 889.9 ± 8.2 kPa and 895.9 ± 8.2 kPa
383.48 K | 896.5 ± 8.2 kPa and 895.3 ± 8.2 kPa
383.49 K | 893.4 ± 8.2 kPa [middle of 6 runs]
383.5 K | 921.5 ± 8.2 kPa and 896.4 ± 8.2 kPa
393.47 K | 1103.1 ± 8.3 kPa and 1109.7 ± 8.3 kPa
393.48 K | 1112.1 ± 8.3 kPa and 1110.3 ± 8.3 kPa
393.49 K | 1109.6 ± 8.3 kPa [middle of 4 runs]
393.5 K | 1111.5 ± 8.3 kPa [middle of 4 runs]
393.51 K | 1113.3 ± 8.3 kPa and 1107 ± 8.3 kPa
403.41 K | 1365.2 ± 8.4 kPa
403.47 K | 1361.3 ± 8.4 kPa
403.48 K | 1355 ± 8.4 kPa
403.49 K | 1364.2 ± 8.4 kPa [middle of 4 runs]
403.5 K | 1358.5 ± 8.4 kPa and 1362.4 ± 8.4 kPa
403.51 K | 1363.4 ± 8.4 kPa and 1358.6 ± 8.4 kPa and 1364.3 ± 8.4 kPa
413.47 K | 1648.2 ± 8.5 kPa and 1655.1 ± 8.5 kPa
413.49 K | 1657.8 ± 8.5 kPa [middle of 4 runs]
413.5 K | 1651.9 ± 8.5 kPa
413.51 K | 1658.4 ± 8.5 kPa [middle of 4 runs]
423.47 K | 1995.7 ± 8.7 kPa
423.48 K | 2000.2 ± 8.7 kPa and 1989.3 ± 8.7 kPa
423.49 K | 2000.4 ± 8.7 kPa and 1992.9 ± 8.7 kPa and 1997.8 ± 8.7 kPa
423.5 K | 1990 ± 8.7 kPa and 1999.2 ± 8.7 kPa
423.51 K | 1999.9 ± 8.7 kPa and 1993.1 ± 8.7 kPa and 1999.7 ± 8.7 kPa
433.46 K | 2391.8 ± 9 kPa
433.47 K | 2384.5 ± 9 kPa
433.49 K | 2396.8 ± 9 kPa and 2389.4 ± 9 kPa and 2393.9 ± 9 kPa
433.5 K | 2385.2 ± 9 kPa and 2388.6 ± 9 kPa
433.51 K | 2396.2 ± 9 kPa
433.52 K | 2395.9 ± 9 kPa
443.45 K | 2854.5 ± 9.3 kPa
443.47 K | 2837.9 ± 9.3 kPa
443.5 K | 2847.4 ± 9.3 kPa and 2860.1 ± 9.3 kPa
443.51 K | 2859.8 ± 9.3 kPa and 2850.8 ± 9.3 kPa

Details | mass density [kg/m3]
333.47 K, 5013.6 kPa | 1294.9 ± 5
333.49 K, 4294.8 kPa | 1291.4 ± 5
343.5 K, 9927.3 kPa | 1290.8 ± 5
353.5 K, 1179.2 kPa | 1214.2 ± 4.7
363.49 K, 3108.6 kPa | 1196.7 ± 4.6
363.5 K, 5627.6 kPa | 1213.6 ± 4.7
373.49 K, 7319.3 kPa | 1196.2 ± 4.6
383.48 K, 2373.8 kPa | 1121.1 ± 4.3
393.48 K, 5697.9 kPa | 1120.5 ± 4.3
393.51 K, 1151.8 kPa | 1038.9 ± 5.3
403.48 K, 1382.1 kPa | 964.9 ± 64
403.49 K, 1273.1 kPa | 87.8
403.5 K, 9039.9 kPa | 1120 ± 4.3
403.51 K, 2538.6 kPa | 1038.4 ± 4
413.48 K, 1705.4 kPa | 964.4 ± 17
413.49 K, 1667.6 kPa | 884.8 ± 16
413.5 K, 1339.2 kPa | 87.8 ± 16
413.51 K, 5100.3 kPa | 1037.9 ± 4
423.48 K, 3720.9 kPa | 964 ± 3.7
423.49 K, 2049.1 kPa | 884.4 ± 4.4
423.5 K, 1403.2 kPa | 87.7 ± 9.9
423.51 K, 7690 kPa | 1037.4 ± 4
433.47 K, 2440.9 kPa | 790.6 ± 5.3
433.49 K, 1466 kPa | 87.7 ± 1
433.49 K, 3342.9 kPa | 883.9 ± 3.4
433.49 K, 5765 kPa | 963.5 ± 3.7
433.5 K, 2159.2 kPa | 167.2 ± 5.7
443.48 K, 2727.2 kPa | 261.3 ± 5.3
443.48 K, 3403.1 kPa | 790.2 ± 3.3
443.49 K, 2855.8 kPa | 451.8 ± 110
443.49 K, 2856.2 kPa | 410.2 ± 110
443.49 K, 2906.1 kPa | 659.8 ± 13
443.49 K, 4930.5 kPa | 883.5 ± 3.4
443.5 K, 1526.7 kPa | 87.6 ± 1
443.5 K, 2301.4 kPa | 167.1 ± 1.9
443.5 K, 2856.5 kPa | 556.1 ± 120
443.5 K, 2857 kPa | 496.8 ± 120
443.5 K, 3041.4 kPa | 734.7 ± 4.2
443.5 K, 7837.5 kPa | 963.1 ± 3.7
443.51 K, 2855.3 kPa | 532.1 ± 120
443.51 K, 2860.2 kPa | 589.2 ± 120
444.48 K, 2904 kPa | 410.2 ± 120
444.48 K, 2905.8 kPa | 451.8 ± 100
444.49 K, 2907.9 kPa | 496.8 ± 79
444.49 K, 2909.6 kPa | 556.1 ± 38

From the NIST ThermoML archive (doi:10.1021/acs.jced.6b00169)
